Laboratory results as given in patent US20140328799A1, “COMPOSITIONS USEFUL FOR THE TREATMENT OF VIRAL DISEASES” (priority 2011, published 2014).
“Also recorded” adds a separate entry of the source.

Tested on: HCV replicons encoding amino acid variations R155K, A156T, and D168Y in the NS3 protease
Experiment: HCV replicon TaqMan assay, variants compared with wildtype
Type: cell-based, Hepatitis C virus
Settings: NS3 protease variants versus wildtype genotype 1b (con1)
Method: The day prior to titration replicon cells are seeded into a 96-well Costar black-walled clear bottom plate (3,000 cells/well) in 100 μl complete D-MEM and incubated 0/N at 37° C. The next morning 25 μl of compound dilutions (5× final concentration) in complete DMEM and 5% DMSO are added, adjusting the final DMSO concentration to 1.0%. Cells with compound are incubated for 48 hours at 37° C.
Total RNA is isolated from cells of each well using the QIAGEN RNeasy 96-well kit according to manufacturer's instructions (QIAGEN, Inc. Valencia, Calif.). RNA is eluted twice in 60 μl aliquots and combined. […]
The normalized value for the amount of replicon RNA is determined by measuring the experimental cycle threshold CT as described above, determining the amount of RNA against a standard curve of total replicon cell RNA, and normalizing this to the signal produced by the cellular human Cyclophilin A gene using Taqman PDAR Human Cyclophilin (Applied Biosystems Inc., Foster City, Calif.).
HCV replicons encoding amino acid variations R155K, A156T, and D168Y in the NS3 protease have been constructed using standard techniques in molecular cloning. The susceptibility of these replicon variants to inhibition by Compound 6 and a Compound T4, was assessed in the HCV replicon assay, and the results are shown in Table 2. […]

SMILES | change in susceptibility to inhibition of replicon variants versus wildtype
C[C@@]1(O)[C@H](O)[C@@H](CO)O[C@H]1n1cnc2c(N)ncnc21 [Compound T4] | no significant change in susceptibility to inhibition; also recorded: no loss of potency
CC[C@@H]1C[C@]1(NC(=O)[C@@H]1C[C@@H]2CN1C(=O)[C@H](C(C)(C)C)NC(=O)OCC(C)(C)CCCCc1cccc3c1CN(C3)C(=O)O2)C(=O)NS(=O)(=O)C1CC1 [Compound 6] | significantly reduced susceptibility to inhibition; also recorded: significant losses of potency
